Activity calls are given as the source filed them. No cut-off for these calls is given here.
What was measured:
BaF3 [1] = test: cells; conditions: Mus musculus, BaF3, 72 h
BaF3 [2] = test: cells; conditions: Mus musculus, BaF3, 72 h; remark: listed apart in the source
HT-29 = test: cells; conditions: Homo sapiens
HCT-116 = test: cells; conditions: Homo sapiens
[3] = Metabolic stability in human liver microsomes assessed as half life at 1 uM measured upto 45 mins in presence of NADPH by LC-MS/MS analysis; type: ADME, Microsome
[4] = Metabolic stability in human liver microsomes assessed as intrinsic clearance at 1 uM measured upto 45 mins in presence of NADPH by LC-MS/MS analysis; type: ADME, Microsome; conditions: read-out: CLH
[5] = Metabolic stability in human liver microsomes assessed as parent compound remaining at 1 uM measured after 45 mins in presence of NADPH by LC-MS/MS analysis; type: ADME, Microsome; conditions: read-out: Stability
[6] = Cytotoxicity against human FHC cells assessed as cell growth inhibition by MTT assay; type: toxicity, cell-based
COLO 205 [7] = test: Induction of apoptosis in human COLO 205 cells assessed as viable cells at 0.037 uM incubated for 72 hrs by Annexin FITC-A staining based flow cytometry (reference value: 78.7 %); type: functional; conditions: read-out: Activity
COLO 205 [8] = test: Induction of apoptosis in human COLO 205 cells assessed as early apoptotic cells at 0.037 uM incubated for 72 hrs by Annexin FITC-A staining based flow cytometry (reference value: 2.54 %); type: functional
COLO 205 [9] = test: Induction of apoptosis in human COLO 205 cells assessed as late apoptotic cells at 0.037 uM incubated for 72 hrs by Annexin FITC-A staining based flow cytometry (reference value: 9.15 %); type: functional
COLO 205 [10] = test: Induction of apoptosis in human COLO 205 cells assessed as necrotic cells at 0.037 uM incubated for 72 hrs by Annexin FITC-A staining based flow cytometry (reference value: 9.65 %); type: functional
COLO 205 [11] = test: Induction of apoptosis in human COLO 205 cells assessed as viable cells at […] incubated for 72 hrs by Annexin FITC-A staining based flow cytometry (reference value: 78.7 %); type: functional; conditions: dose 0.11 µM, read-out: Activity
COLO 205 [12] = test: Induction of apoptosis in human COLO 205 cells assessed as early apoptotic cells at […] incubated for 72 hrs by Annexin FITC-A staining based flow cytometry (reference value: 2.54 %); type: functional; conditions: dose 0.11 µM
COLO 205 [13] = test: Induction of apoptosis in human COLO 205 cells assessed as late apoptotic cells at […] incubated for 72 hrs by Annexin FITC-A staining based flow cytometry (reference value: 9.15 %); type: functional; conditions: dose 0.11 µM
COLO 205 [14] = test: Induction of apoptosis in human COLO 205 cells assessed as necrotic cells at […] incubated for 72 hrs by Annexin FITC-A staining based flow cytometry (reference value: 9.65 %); type: functional; conditions: dose 0.11 µM
COLO 205 [15] = test: Induction of apoptosis in human COLO 205 cells assessed as viable cells at 0.33 uM incubated for 72 hrs by Annexin FITC-A staining based flow cytometry (reference value: 78.7 %); type: functional; conditions: read-out: Activity
COLO 205 [16] = test: Induction of apoptosis in human COLO 205 cells assessed as early apoptotic cells at 0.33 uM incubated for 72 hrs by Annexin FITC-A staining based flow cytometry (reference value: 2.54 %); type: functional
COLO 205 [17] = test: Induction of apoptosis in human COLO 205 cells assessed as late apoptotic cells at 0.33 uM incubated for 72 hrs by Annexin FITC-A staining based flow cytometry (reference value: 9.15 %); type: functional
COLO 205 [18] = test: Induction of apoptosis in human COLO 205 cells assessed as necrotic cells at 0.33 uM incubated for 72 hrs by Annexin FITC-A staining based flow cytometry (reference value: 9.65 %); type: functional
COLO 205 [19] = test: Induction of apoptosis in human COLO 205 cells assessed as viable cells at 1 uM incubated for 72 hrs by Annexin FITC-A staining based flow cytometry (reference value: 78.7 %); type: functional; conditions: read-out: Activity
COLO 205 [20] = test: Induction of apoptosis in human COLO 205 cells assessed as early apoptotic cells at 1 uM incubated for 72 hrs by Annexin FITC-A staining based flow cytometry (reference value: 2.54 %); type: functional
COLO 205 [21] = test: Induction of apoptosis in human COLO 205 cells assessed as late apoptotic cells at 1 uM incubated for 72 hrs by Annexin FITC-A staining based flow cytometry (reference value: 9.15 %); type: functional
COLO 205 [22] = test: Induction of apoptosis in human COLO 205 cells assessed as necrotic cells at 1 uM incubated for 72 hrs by Annexin FITC-A staining based flow cytometry (reference value: 9.65 %); type: functional
COLO 205 [23] = test: Induction of cell cycle arrest in human COLO 205 cells assessed as accumulation at G1 phase at 0.037 uM incubated for 24 hrs by flow cytometry (reference value: 47.9 %); type: functional
COLO 205 [24] = test: Induction of cell cycle arrest in human COLO 205 cells assessed as accumulation at S phase at 0.037 uM incubated for 24 hrs by flow cytometry (reference value: 40.8 %); type: functional
COLO 205 [25] = test: Induction of cell cycle arrest in human COLO 205 cells assessed as accumulation at G2 phase at 0.037 uM incubated for 24 hrs by flow cytometry (reference value: 6.8 %); type: functional
COLO 205 [26] = test: Induction of cell death in human COLO 205 cells at 0.11 to 1 uM incubated for 24 hrs by flow cytometry; type: functional, cell-based; conditions: dose 0.11-1 µM
COLO 205 [27] = test: cells; conditions: Homo sapiens

With `CCN1CCN(CCCOc2cc3nccc(Oc4c(F)cc(NC(=O)NN5C(=O)CSC5c5ccccc5)cc4F)c3cc2OC)CC1` (centres undefined) the IC50 (BaF3 [1]) was 140 nM, the IC50 (BaF3 [2]) was 260 nM and the IC50 (HT-29) was 140 nM. The IC50 (HCT-116) was 210 nM.
Work on `O=c1ccc2ccc(O)cc2o1` [UMBELLIFERONE] yielded a half-life at 1 µM [3] of 0.1 h, a CLint scaled at 1 µM [4] of 289 mL/min/kg and a remaining at 0.75 h, 1 µM [5] of 0.8%.
`CCN(CC)CCCOc1cc2nc(N)cc(Oc3ccc(NC(=O)NN4C(=O)CSC4c4c(F)cccc4F)cc3)c2cc1OC` (centres undefined) gave an IC50 (BaF3 [1]) of 3300 nM and an IC50 (BaF3 [2]) of over 10000 nM.
In the case of `CCN1CCN(CCCOc2cc3nccc(Oc4c(F)cc(NC(=O)NN5C(=O)CS[C@H]5c5ccc(F)cc5F)cc4F)c3cc2OC)CC1`, the IC50 [6] is reported as over 10000 nM, the half-life at 1 µM [3] is reported as 2.83 h and the viability at 0.037 µM (COLO 205 [7]) is reported as 63.4%. The Activity (COLO 205 [8]) was 6.59%, the Activity (COLO 205 [9]) was 24.8% and the Activity (COLO 205 [10]) was 5.23%. For the same molecule, the viability at […] (COLO 205 [11]) was 23.1%, the Activity (COLO 205 [12]) was 6.29% and the Activity (COLO 205 [13]) was 47.9%. For the same molecule, the Activity (COLO 205 [14]) was 22.7%, the viability at 0.33 µM (COLO 205 [15]) was 15.4% and the Activity (COLO 205 [16]) was 5.19%. It also gave an Activity (COLO 205 [17]) of 54.4%, an Activity (COLO 205 [18]) of 25% and a viability at 1 µM (COLO 205 [19]) of 14%. The Activity (COLO 205 [20]) was 7.41%, the Activity (COLO 205 [21]) was 64.7% and the Activity (COLO 205 [22]) was 13.9%. It also gave an Activity (COLO 205 [23]) of 51.4%, an Activity (COLO 205 [24]) of 38.3% and an Activity (COLO 205 [25]) of 6.2%. The Activity (COLO 205 [26]) was “Active” and the IC50 (COLO 205 [27]) was 42 nM.
`CCN(CC)CCCOc1cc2nccc(Oc3ccc(NC(=O)NN4C(=O)CSC4c4c(F)cccc4F)cc3OC)c2cc1OC` (centres undefined) gave an IC50 (BaF3 [1]) of 110 nM, an IC50 (BaF3 [2]) of 160 nM and an IC50 (HT-29) of 680 nM. For the same molecule, the IC50 (HCT-116) was 200 nM.
In the case of `CCN1CCN(CCCOc2cc3nccc(Oc4c(F)cc(NC(=O)NN5C(=O)CS[C@@H]5c5ccc(F)cc5F)cc4F)c3cc2OC)CC1`, the IC50 [6] is reported as 4500 nM, the half-life at 1 µM [3] is reported as 2.58 h and the IC50 (COLO 205 [27]) is reported as 63 nM.

Source: ChEMBL document CHEMBL5338715, “Identification of (S)-1-(2-(2,4-difluorophenyl)-4-oxothiazolidin-3-yl)-3-(4-((7-(3-(4-ethylpiperazin-1-yl)propoxy)-6-methoxyquinolin-4-yl)oxy)-3,5-difluorophenyl)urea as a potential anti-colorectal cancer agent” (Eur J Med Chem, 2022)
